In patent US20240368150A1 (Hoffmann-La Roche Inc., priority 2021, published 2024):
Read-outs that look alike come from different tables or passages of the source.

Key:
[1] = system: primary human T-cells; experiment: Proliferation assay after 5 days (CellTiter-Glo, CD3 stimulation; PBS counter screen); assay type: cell-based; settings: CD3 stimulation; for Emax / EC50: Homo sapiens, T-cell, 120 h; for Emax: read-out: Emax proliferation (% activation); for EC50: primary human T-cells, CellTiter-Glo after 5 days, EC50 of fitted sigmoidal curve, read-out: Tcell Proliferation CD3 EC50
Summary of the method: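 Read-out: CellTiter-Glo 2.0 luminescence (ATP ∝ cell number) at day 5 after compound addition. Compounds activating unstimulated cells or reducing viability flagged.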

[2] = system: primary human T-cells
[3] = 5 days, normalized to reference compound A1 as stimulator control = 100%, DMSO neutral control

Structure (SMILES) | EC50 [2] [µM] | Emax [1, 3] [%] | EC50 [1] [µM] | Emax proliferation (% activation) [1, 3] [% activation]
CC(C)(CN1CCC(F)(F)CC1)c1nnc(-c2cc3c(cc2F)S(=O)(=O)C[C@H](N)C(=O)N3Cc2ccc(Cl)cc2)o1 [Example 142, (3R)-3-amino-5-[(4-chlorophenyl)methyl]-7-[5-[2-(4,4-difluoro-1-piperidyl)-1,1-dimethyl-ethyl]-1,3,4-oxadiazol-2-yl]-8-fluoro-1,1-dioxo-2,3-dihydro-1λ^6,5-benzothiazepin-4-one] | 0.224 | 66 | 0.138 | –
CN(C)CCCC(C)(C)c1nnc(-c2cc3c(cc2F)S(=O)(=O)C[C@H](N)C(=O)N3Cc2ccc(Cl)cc2)o1 [Example 143, (3R)-3-amino-5-[(4-chlorophenyl)methyl]-7-[5-[4-(dimethylamino)-1,1-dimethyl-butyl]-1,3,4-oxadiazol-2-yl]-8-fluoro-1,1-dioxo-2,3-dihydro-1λ^6,5-benzothiazepin-4-one] | 1.27 | 77 | 2.39 | –
CN1CCC(c2nnc(-c3cc4c(cc3F)S(=O)(=O)C[C@H](N)C(=O)N4Cc3ccc(Cl)cc3)o2)C1 (stereo partly drawn) [Example 144, (3R)-3-amino-5-[(4-chlorophenyl)methyl]-8-fluoro-7-[5-(1-methylpyrrolidin-3-yl)-1,3,4-oxadiazol-2-yl]-1,1-dioxo-2,3-dihydro-1λ^6,5-benzothiazepin-4-one] | 1.82 | 106 | 6.15 | –
CN1CCCC(C)(c2nnc(-c3cc4c(cc3F)S(=O)(=O)C[C@H](N)C(=O)N4Cc3ccc(Cl)cc3)o2)C1 (stereo partly drawn) [Example 145, (3R)-3-amino-5-[(4-chlorophenyl)methyl]-7-[5-(1,3-dimethyl-3-piperidyl)-1,3,4-oxadiazol-2-yl]-8-fluoro-1,1-dioxo-2,3-dihydro-1λ^6,5-benzothiazepin-4-one] | 0.404 | 107 | 0.428 | –
CN(C)CC(C)(C)c1nnc(-c2cc3c(cc2F)S(=O)(=O)C[C@H](N)C(=O)N3Cc2ccc(Cl)cc2)o1 [Example 146, (3R)-3-amino-5-[(4-chlorophenyl)methyl]-7-[5-[2-(dimethylamino)-1,1-dimethyl-ethyl]-1,3,4-oxadiazol-2-yl]-8-fluoro-1,1-dioxo-2,3-dihydro-1λ^6,5-benzothiazepin-4-one] | 0.26 | 90 | 0.189 | –
CC(C)(CN1CCOCC1)c1nnc(-c2cc3c(cc2F)S(=O)(=O)C[C@H](N)C(=O)N3Cc2ccc(Cl)cc2)o1 [Example 147, (3R)-3-amino-5-[(4-chlorophenyl)methyl]-7-[5-(1,1-dimethyl-2-morpholino-ethyl)-1,3,4-oxadiazol-2-yl]-8-fluoro-1,1-dioxo-2,3-dihydro-1λ^6,5-benzothiazepin-4-one] | 0.348 | 117 | 0.343 | –
CN1CCN(CC(C)(C)c2nnc(-c3cc4c(cc3F)S(=O)(=O)C[C@H](N)C(=O)N4Cc3ccc(Cl)cc3)o2)CC1 [Example 148, (3R)-3-amino-5-[(4-chlorophenyl)methyl]-7-[5-[1,1-dimethyl-2-(4-methylpiperazin-1-yl)ethyl]-1,3,4-oxadiazol-2-yl]-8-fluoro-1,1-dioxo-2,3-dihydro-1λ^6,5-benzothiazepin-4-one] | 0.988 | 48 | > 10 | –
CC(C)(CCCN)c1nnc(-c2cc3c(cc2F)S(=O)(=O)C[C@H](N)C(=O)N3Cc2ccc(Cl)cc2)o1 [Example 149, (3R)-3-amino-7-[5-(4-amino-1,1-dimethyl-butyl)-1,3,4-oxadiazol-2-yl]-5-[(4-chlorophenyl)methyl]-8-fluoro-1,1-dioxo-2,3-dihydro-1λ^6,5-benzothiazepin-4-one] | 4.23 | 57 | 2.56 | –
CCN1CC(c2nnc(-c3cc4c(cc3F)S(=O)(=O)C[C@H](N)C(=O)N4Cc3ccc(Cl)cc3)o2)CC(F)(F)C1 (stereo partly drawn) [Example 150, (3R)-3-amino-5-[(4-chlorophenyl)methyl]-7-[5-(1-ethyl-5,5-difluoro-3-piperidyl)-1,3,4-oxadiazol-2-yl]-8-fluoro-1,1-dioxo-2,3-dihydro-1λ^6,5-benzothiazepin-4-one] | 0.358 | 128 | 0.0757 | –
COCCN1CC(c2nnc(-c3cc4c(cc3F)S(=O)(=O)C[C@H](N)C(=O)N4Cc3ccc(Cl)cc3)o2)CC(F)(F)C1 (stereo partly drawn) [Example 151, (3R)-3-amino-5-[(4-chlorophenyl)methyl]-7-[5-[5,5-difluoro-1-(2-methoxyethyl)-3-piperidyl]-1,3,4-oxadiazol-2-yl]-8-fluoro-1,1-dioxo-2,3-dihydro-1λ^6,5-benzothiazepin-4-one] | 0.0934 | 112 | 0.0459 | –
N[C@H]1CS(=O)(=O)c2cc(F)c(-c3nnc(C4CN(CCO)CC(F)(F)C4)o3)cc2N(Cc2ccc(Cl)cc2)C1=O (stereo partly drawn) [Example 152, (3R)-3-amino-5-[(4-chlorophenyl)methyl]-7-[5-[5,5-difluoro-1-(2-hydroxyethyl)-3-piperidyl]-1,3,4-oxadiazol-2-yl]-8-fluoro-1,1-dioxo-2,3-dihydro-1λ^6,5-benzothiazepin-4-one] | 0.477 | 78 | 0.549 | –
CN1CC(c2nnc(-c3cc4c(cc3F)S(=O)(=O)C[C@H](N)C(=O)N4Cc3ccc(Cl)cc3)o2)CC(F)(F)C1 (stereo partly drawn) [Example 153, (3R)-3-amino-5-[(4-chlorophenyl)methyl]-7-[5-(5,5-difluoro-1-methyl-3-piperidyl)-1,3,4-oxadiazol-2-yl]-8-fluoro-1,1-dioxo-2,3-dihydro-1λ^6,5-benzothiazepin-4-one] | 0.246 | – | 0.112 | 150
CN1CCCC(c2nnc(-c3cc4c(cc3F)S(=O)(=O)C[C@H](N)C(=O)N4Cc3ccc(Cl)cc3)o2)C1 (stereo partly drawn) [Example 154, (3R)-3-amino-5-[(4-chlorophenyl)methyl]-8-fluoro-7-[5-(1-methyl-3-piperidyl)-1,3,4-oxadiazol-2-yl]-1,1-dioxo-2,3-dihydro-1λ^6,5-benzothiazepin-4-one] | 0.89 | 86 | 1.72 | –
CN1CC(C)(c2nnc(-c3cc4c(cc3F)S(=O)(=O)C[C@H](N)C(=O)N4Cc3ccc(Cl)cc3)o2)C1 [Example 155, (3R)-3-amino-5-[(4-chlorophenyl)methyl]-7-[5-(1,3-dimethylazetidin-3-yl)-1,3,4-oxadiazol-2-yl]-8-fluoro-1,1-dioxo-2,3-dihydro-1λ^6,5-benzothiazepin-4-one] | 0.778 | 72 | 4.18 | –
CC(C)(CNC1COC1)c1nnc(-c2cc3c(cc2F)S(=O)(=O)C[C@H](N)C(=O)N3Cc2ccc(Cl)cc2)o1 [Example 156, (3R)-3-amino-5-[(4-chlorophenyl)methyl]-7-[5-[1,1-dimethyl-2-(oxetan-3-ylamino)ethyl]-1,3,4-oxadiazol-2-yl]-8-fluoro-1,1-dioxo-2,3-dihydro-1lambda6,5-benzothiazepin-4-one] | 3.34 | 135 | 8.13 | –

Continued, in another order:

EC50 [2] [µM] | Structure (SMILES) | Emax [1, 3] [%] | EC50 [1] [µM] | Emax proliferation (% activation) [1, 3] [% activation]
2.1 | CC(C)(CNC1CCOC1)c1nnc(-c2cc3c(cc2F)S(=O)(=O)C[C@H](N)C(=O)N3Cc2ccc(Cl)cc2)o1 (stereo partly drawn) [Example 157, (3R)-3-amino-5-[(4-chlorophenyl)methyl]-7-[5-[1,1-dimethyl-2-(tetrahydrofuran-3-ylamino)ethyl]-1,3,4-oxadiazol-2-yl]-8-fluoro-1,1-dioxo-2,3-dihydro-1λ^6,5-benzothiazepin-4-one] | 106 | 1.01 | –
0.194 | CN1CCC(F)(F)C(c2nnc(-c3cc4c(cc3F)S(=O)(=O)C[C@H](N)C(=O)N4Cc3ccc(Cl)cc3)o2)C1 (stereo partly drawn) [Example 158, (3R)-3-amino-5-[(4-chlorophenyl)methyl]-7-[5-(4,4-difluoro-1-methyl-3-piperidyl)-1,3,4-oxadiazol-2-yl]-8-fluoro-1,1-dioxo-2,3-dihydro-1λ^6,5-benzothiazepin-4-one] | 141 | 2.42 | –
0.218 | N[C@H]1CS(=O)(=O)c2cc(F)c(-c3nnc(C4CN(C5CC5)CC(F)(F)C4)o3)cc2N(Cc2ccc(Cl)cc2)C1=O (stereo partly drawn) [Example 159, (3R)-3-amino-5-[(4-chlorophenyl)methyl]-7-[5-(1-cyclopropyl-5,5-difluoro-3-piperidyl)-1,3,4-oxadiazol-2-yl]-8-fluoro-1,1-dioxo-2,3-dihydro-1λ^6,5-benzothiazepin-4-one] | 121 | 0.184 | –
0.499 | N[C@H]1CS(=O)(=O)c2cc(F)c(-c3nnc(C4CNCC(F)(F)C4)o3)cc2N(Cc2ccc(Cl)cc2)C1=O (stereo partly drawn) [Example 160, (3R)-3-amino-5-[(4-chlorophenyl)methyl]-7-[5-(5,5-difluoro-3-piperidyl)-1,3,4-oxadiazol-2-yl]-8-fluoro-1,1-dioxo-2,3-dihydro-1λ^6,5-benzothiazepin-4-one] | 96 | 0.382 | –
1.15 | CC1(c2nnc(-c3cc4c(cc3F)S(=O)(=O)C[C@H](N)C(=O)N4Cc3ccc(Cl)cc3)o2)CCNCC1 [Example 161, (3R)-3-amino-5-[(4-chlorophenyl)methyl]-8-fluoro-7-[5-(4-methyl-4-piperidyl)-1,3,4-oxadiazol-2-yl]-1,1-dioxo-2,3-dihydro-1λ^6,5-benzothiazepin-4-one] | 73 | 5.48 | –
0.383 | CC(=O)N1CC(c2nnc(-c3cc4c(cc3F)S(=O)(=O)C[C@H](N)C(=O)N4Cc3ccc(Cl)cc3)o2)CC(F)(F)C1 (stereo partly drawn) [Example 162, (3R)-7-[5-(1-acetyl-5,5-difluoro-3-piperidyl)-1,3,4-oxadiazol-2-yl]-3-amino-5-[(4-chlorophenyl)methyl]-8-fluoro-1,1-dioxo-2,3-dihydro-1λ^6,5-benzothiazepin-4-one] | 84 | 0.628 | –
